# Reference: patent publication US20160052898A1, “NOVEL COMPOUNDS” (BAYER PHARMA AKTIENGESELLSCHAFT, priority 2013, published 2016)
# Where a name gives a salt, the structure may show the parent alone.
# Experiments:
# [1] = test system: HCT116 FOP control reporter cell line; test: HCT116 FOP control vector reporter assay (non-functional TCF elements); format: cell-based; details: Homo sapiens, HCT-116, 36 h, HCT116 FOP control reporter cells, luciferase expression, 36 hours incubation, 50 μM to 15 nM; read-out: HCT116 FOPFlash IC50
# How it was run: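 Stable HCT116 line carrying the non-functional FOP luciferase construct, 10000 cells/well plated 24 hrs before. Compounds 50 μM to 15 nM (3.16-fold steps) in CAFTY buffer pH 7.4 with 2 mM Ca2+, 36 hours at 37° C; luciferase luminescence read.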
# [2] = test system: constitutive active colorectal cancer cell (CRC) Wnt pathway; test: HCT116 Super TopFlash cellular reporter assay (constitutive active Wnt pathway); format: cell-based; details: Homo sapiens, HCT-116, 36 h, HCT116 TOP reporter cells, luciferase expression, 36 hours incubation, 50 μM to 15 nM
# How it was run: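 HCT116 cells (β-catenin ΔS45) stably carrying Super TopFlash, with a parallel FOP-control line, were plated 24 h ahead. They were exposed 36 h at 37 °C, 5% CO2 to compound from a 50 μM–15 nM, 3.16-fold pre-dilution series in CAFTY buffer (pH 7.4, 2 mM Ca2+, 0.01% BSA). Wnt signalling was read as luciferase luminescence.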
SMILES,IC50 [1],IC50 [2]
COCc1ccc(C(=O)Nc2ccc(-c3ccccc3)cc2)cc1NC(=O)C1(N(C)C)CC1 [Example 158],≥ 50000 nM,63 nM
"Cc1ccc(C(=O)Nc2ccc(-c3ccccc3)cc2)cc1NC(=O)C1(N2CCOCC2)CC1 [Example 159, N-(biphenyl-4-yl)-4-methyl-3-({[1-(morpholin-4-yl)cyclopropyl)carbonyl}amino)benzamide]",≥ 50000 nM,70.5 nM
"CC(C(=O)Nc1cc(NC(=O)c2ccc(-c3ccccc3)cc2)ccc1C(F)(F)F)N1CCOCC1 (stereo not drawn) [Example 161, N-[3-{[2-(morpholin-4-yl)propanoyl]amino}-4-(trifluoromethyl)phenyl] biphenyl-4-carboxamide]",≥ 50000 nM,98 nM
"COCCOCc1ccc(C(=O)Nc2ccc(-c3ccccc3)cc2)cc1NC(=O)C(C)N1CCOCC1 (stereo not drawn) [Example 164, N-(biphenyl-4-yl)-4-[(2-methoxyethoxy)methyl]-3-{[2-(morpholin-4-yl)propanoyl]amino} benzamide]",≥ 50000 nM,134 nM
"COCc1ccc(C(=O)Nc2ccc(-c3ccccc3)cc2)cc1NC(=O)CN1CCOCC1 [Example 165, N-(biphenyl-4-yl)-4-(methoxymethyl)-3-[(morpholin-4-ylacetyl)amino]benzamide]",≥ 50000 nM,135 nM
"O=C(Nc1ccc(F)c(NC(=O)C2(N3CCOCC3)CC2)c1)c1ccc(-c2ccccc2)cc1 [Example 171, N-[4-fluoro-3-({[1-(morpholin-4-yl)cyclopropyl]carbonyl}amino)phenyl]biphenyl-4-carboxamide]",≥ 50000 nM,200 nM
"COC1CCN(CC(=O)Nc2cc(C(=O)Nc3ccc(-c4ccccc4)cc3)ccc2OC2CC2)C1 (stereo not drawn) [Example 174, N-(biphenyl-4-yl)-4-(cyclopropyloxy)-3-{[(3-methoxypyrrolidin-1-yl)acetyl)amino}benzamide]",≥ 50000 nM,215 nM
"O=C(CN1C[C@H]2C[C@@H]1CO2)Nc1cc(C(=O)Nc2ccc(-c3ccccc3)cc2)ccc1OC1CC1 [Example 181, N-(biphenyl-4-yl)-4-(cyclopropyloxy)-3-{[(1R,4R)-2-oxa-5-azabicyclo[2.2.1]hept-5-ylacetyl]amino}benzamide]",≥ 50000 nM,302 nM
"O=C(CN1CCOCC1)Nc1cc(NC(=O)c2ccc(-c3ccccc3)cc2)ccc1C(F)(F)F [Example 183, N-{3-[(morpholin-4-ylacetyl)amino]-4-(trifluoromethyl)phenyl} biphenyl-4-carboxamide]",≥ 50000 nM,344 nM
"O=C(CN1CCOCC1)Nc1cc(C(=O)Nc2ccc(-c3ccccc3)cc2)ccc1OC(F)F [Example 184, N-(biphenyl-4-yl)-4-(difluoromethoxy)-3-[(morpholin-4-ylacetyl)amino]benzamide]",≥ 50000 nM,346 nM
"COc1ccc(NC(=O)c2ccc(-c3ccccc3)cc2)cc1NC(=O)C1(N2CCN(C3CC3)CC2)CC1 [Example 185, N-[3-({[l-(4-cyclopropylpiperazin-1-yl)cyclopropyl]carbonyl}amino}-4-melhoxyphenyl)biphenyl-4-carboxamide]",≥ 50000 nM,374 nM
"COC1CN(CC(=O)Nc2cc(C(=O)Nc3ccc(-c4ccccc4)cc3)ccc2OC2CC2)C1 [Example 186, N-(biphenyl-4-yl)-4-(cyclopropyloxy)-3-{[(3-methoxyazetidin-1-yl)acetyl]amino}benzamide]",≥ 50000 nM,385 nM
"COCc1ccc(C(=O)Nc2ccc(-c3ccccc3)cc2)cc1NC(=O)Cn1cccn1 [Example 187, N-(biphenyl-4-yl)-4-(methoxymethyl)-3-[(1H-pyrazol-1-ylacetyl)amino]benzamide]",≥ 50000 nM,423 nM
"COc1ccc(NC(=O)c2ccc(-c3ccccc3)cc2)cc1NC(=O)C1(N(C)C)CC1 [Example 189, N-[3-({[1-(dimethylamino)cyclopropyl]carbonyl}amino)-4-methoxyphenyl]biphenyl-4-carboxamide]",≥ 50000 nM,479 nM
"O=C(CN1C[C@H]2C[C@@H]1CO2)Nc1cc(C(=O)Nc2ccc(-c3ccccc3)cc2)ccc1C(F)(F)F [Example 190, N-(biphenyl-4-yl)-3-{[(1R,4R)-2-oxa-5-azabicyclo[2.2.1]hept-5-ylacetyl]amino}-4-(trifluoromethyl)benzamide]",≥ 50000 nM,568 nM
"O=C(CN1C[C@@H]2C[C@H]1CO2)Nc1cc(C(=O)Nc2ccc(-c3ccccc3)cc2)ccc1OC1CC1 [Example 192, N-(biphenyl-4-yl)-4-(cyclopropyloxy)-3-{[(1S,4S)-2-oxa-S-azabicyclo[2.2.1]hept-5-ylacetyl]amino}benzamide]",≥ 50000 nM,785 nM
"Cc1noc(-c2ccc(C(=O)Nc3ccc(-c4ccccc4)cc3)cc2NC(=O)CN2CCOCC2)n1 [Example 194, N-(biphenyl-4-yl)-4-(3-methyl-1,2,4-oxadiazol-5-yl)-3-[(morpholin-4-ylacetyl)amino]benzamide]",≥ 50000 nM,864 nM

# The remaining lines, values ahead:
IC50 [1],IC50 [2],SMILES
≥ 50000 nM,52.7 nM,"COc1ccc(C(=O)Nc2ccc(-c3ccccc3)cc2)cc1NC(=O)C1(N2CCN(C3CC3)CC2)CC1 [Example 156, N-(biphenyl-4-yl)-3-({[1-(4-cyclopropylpiperazin-1-yl)cyclopropyl)carbonyl}amino)-4-methoxybenzamide]"
43500 nM,60.5 nM,"COCc1ccc(C(=O)Nc2ccc(-c3ccccc3)cc2)cc1NC(=O)C(C)N1CCOCC1 (stereo not drawn) [Example 157, N-(biphenyl-4-yl)-4-(methoxymethyl)-3-{[2-(morpholin-4-yl)propanoyl)amino} benzamide]"
30000 nM,79.5 nM,"COCCCOCc1ccc(C(=O)Nc2ccc(-c3ccccc3)cc2)cc1NC(=O)C(C)N1CCOCC1 (stereo not drawn) [Example 160, N-(biphenyl-4-yl)-4-[(3-methoxypropoxy)methyl]-3-([2-(morpholin-4-yl)propanoyl]amino} benzamide]"
12600 nM,127 nM,"COc1ccc(NC(=O)c2ccc(-c3ccccc3)cc2)cc1NC(=O)C1(N2CCN(C)CC2)CC1 [Example 163, N-[4-methoxy-3-({[1-(4-methylpiperazin-1-yl)cyclopropyl]carbonyl}amino)phenyl]biphenyl-4-carboxamide hydrochloride (1:1)]"
7400 nM,178 nM,"COCc1ccc(C(=O)Nc2ccc(-c3ccccc3)cc2)cc1NC(=O)C(C)N1CC2CCC(C1)O2 (stereo not drawn) [Example 170, N-(biphenyl-4-yl)-4-(methoxymethyl)-3-{(2-(8-oxa-3-azabicyclo[3.2.1]oct-3-yl)propanoyl)amino} benzamide]"
7300 nM,218 nM,"COCc1ccc(C(=O)Nc2ccc(-c3ccccc3)cc2)cc1NC(=O)CN1C[C@@H]2C[C@H]1CO2 [Example 175, N-(biphenyl-4-yl)-4-(methoxymethyl)-3-{[(1S,4S)-2-oxa-5-azabicyclo[2.2.1]hept-5-ylacetyl)amino}benzamide]"
3420 nM,260 nM,"COCCCOCc1ccc(C(=O)Nc2ccc(-c3ccccc3)cc2)cc1NC(=O)CN1CC2CCC(C1)O2 [Example 176, N-(biphenyl-4-yl)-4-[(3-methoxypropoxy)methyl]-3-[(8-oxa-3-azabicyclo[3.2.1]oct-3-ylacetyl)amino]benzamide]"
47500 nM,285 nM,"CC(C(=O)Nc1cc(NC(=O)c2ccc(-c3ccccc3)cc2)ccc1C(F)(F)F)N1CC2CCC(C1)O2 (stereo not drawn) [Example 178, N-[3-{[2-(8-oxa-3-azabicyclo[3.2.1]oct-3-yl)propanoyl]amino}-4-(trifluoromethyl)phenyl) biphenyl-4-carboxamide]"
33000 nM,456 nM,"CN(C)C1(C(=O)Nc2cc(NC(=O)c3ccc(-c4ccccc4)cc3)ccc2OC(F)(F)F)CC1 [Example 188, N-[3-({[1-(dimethylamino)cyclopropyl]carbonyl}amino)-4-(trifluoromethoxy)phenyl] biphenyl-4-carboxamide]"
12000 nM,715 nM,"O=C(CN1CCOCC1)Nc1cc(C(=O)Nc2ccc(-c3ccccc3)cc2)ccc1C(=O)NCCN1CCCC1 [Example 191, N4-(biphenyl-4-yl)-2-[(morpholin-4-ylacetyl)amino]-N1-[2-(pyrrolidin-1-yl)ethyl]terephthalamide]"
17000 nM,810 nM,"COCCOCc1ccc(C(=O)Nc2ccc(-c3ccccc3)cc2)cc1NC(=O)CN1CC2CCC(C1)O2 [Example 193, N-(biphenyl-4-yl)-4-[(2-methoxyethoxy)methyl]-3-[(8-oxa-3-azabicyclo[3.2.1]oct-3-ylacetyl)amino]benzamide]"
39000 nM,975 nM,"COc1ccc(NC(=O)c2ccc(-c3ccc(O)cc3)cc2)cc1NC(=O)CN1CCOCC1 [Example 195, 4′-hydroxy-N-{4-methoxy-3-[(morpholin-4-ylacetyl)amino)phenyl} biphenyl-4-carboxamide]"
13000 nM,1170 nM,"COc1ccc(NC(=O)c2ccc(-c3cc(F)cc(F)c3)cc2F)cc1NC(=O)CN1CCOCC1 [Example 196, 3,3′,5′-trifluoro-N-{4-methoxy-3-[(morpholin-4-ylacetyl)amino]phenyl} biphenyl-4-carboxamide]"
